According to PubChem BioAssay AID179 (DTP/NCI, 2004):
“And” between values parts separate entries of the source, which are not always exact repeats. Equal entries are not always repeated. The source made the active and inactive calls.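 Rule for the calls: active = compounds giving half or more protection of infected cells from virus-caused growth loss, again on retest; inactive = the rest.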 Where a SMILES comes first, the peptide text is derived from it.

Test system: CEM cells HIV-1 protection, formazan growth assay
Test: NCI AIDS Antiviral Assay
Conditions: for IC50: measured here: growth of uninfected CEM cells
How it was run: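 Five concentrations of each compound were applied to infected and uninfected human CEM cells. Protection from HIV-1 was judged from growth measured with a soluble formazan assay.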

Compound	outcome	EC50	IC50
NC(Cc1ccccc1)C(=O)NC(Cc1ccccc1)NC(=O)C(Cc1c[nH]c2ccccc12)C(=O)O (stereo not drawn)	inactive		
O=C(Nc1ccc(S(=O)(=O)/N=c2\ncccn2C(=O)C(C(F)(F)F)C(F)(F)F)cc1)C(C(F)(F)F)C(F)(F)F		> 200 µM	> 200 µM
CCOC(=O)C1(N)CCc2[nH][nH]c(=O)c2C1 (stereo not drawn)		> 200 µM	> 200 µM
CC1N(C)C(=O)OC12CCN(CCCC(=O)c1ccc(F)cc1)CC2 (stereo not drawn)		> 200 µM	> 200 µM
Cc1ccnc2c1NC(=O)c1cccnc1N2C1CC1		0.0437 µM	195 µM
NNc1ncnc2c1ncn2C1OC(CO)CC1F (stereo not drawn)		> 148 µM	> 148 µM
CN(C)C(=S)/N=c1\ss/c(=N/C(=S)N(C)C)n1-c1ccc([N+](=O)[O-])cc1		> 200 µM	151 µM
CC(C)OP(=O)(OC(C)C)c1nn(-c2ccc([N+](=O)[O-])cc2)c(=N)s1		> 129 µM	93.3 µM
OCCN=C1Nc2ccc(Cl)cc2C(=S)N2CSC[C@@H]12		> 200 µM	> 200 µM
COC(=O)[C@](NC(=O)OCc1ccccc1)([C@@H](C)S(=O)c1ccc(C)cc1)C(F)(F)F (stereo partly drawn)		> 200 µM	29.5 µM
O=c1ccc2nc3ccc(O)cc3oc-2c1		> 200 µM	14.1 µM
Cc1ccc(C)c(NC(=O)C(=O)CC(=O)C2CCOC2=O)c1 (stereo not drawn)	inactive		
Cc1c(C)c2c(c(N)c1C#N)C(=O)N(O)C2=O		> 200 µM	> 200 µM
CCN1CCC(O)(c2ccc(O)cc2)C(C(=O)c2ccc(O)cc2)C1 (stereo not drawn)		> 16.2 µM	> 16.2 µM
CC(C)(C)c1cc(C(P(=O)(O)O)P(=O)(O)O)cc(C(C)(C)C)c1O		> 525 µM	331 µM
CNc1cc(OCc2ccccc2)c(OC)cc1C(=O)N1CCC[C@H]1CO		> 200 µM	42.7 µM
Cc1nc2c(Cl)cc(Cl)cc2c(Cl)c1CCCl		> 200 µM	> 200 µM
O=c1oc2ccccc2c(O)c1/C=N/C(=S)NCCc1ccccc1		> 200 µM	> 200 µM
c1ccc2nc(NCCSSCCNc3cnc4ccccc4n3)cnc2c1		> 200 µM	24.5 µM
CC(=O)N1N=C(c2ccc3ccccc3c2O)CC1c1ccc(Cl)cc1Cl (stereo not drawn)		> 200 µM	22.9 µM
Cc1c(C(=O)Nc2ccccc2)nnn1-c1ccnc2cc(C(F)(F)F)ccc12		> 200 µM	> 200 µM
N#Cc1ccc(-c2ccc(Cl)cc2)n(C2OC(CO)C(O)C(O)C2O)c1=S (stereo not drawn)		> 200 µM	> 200 µM
CSc1ncc(Br)c(Nc2c[nH]c(=O)[nH]c2=O)n1		> 200 µM	> 200 µM

Compound	outcome	EC50	IC50
O=C1N[Se](=O)c2ccccc21 (stereo not drawn)		2.69 µM	22.9 µM
CN1CN(c2ccccc2)C2(CCN(CCCC3(c4cccs4)OCCO3)CC2)C1=O		> 200 µM	107 µM
NC(=Nc1ccccc1)C(F)(F)F		> 200 µM	> 200 µM
O=C(OC[C@H]1OC(OC(=O)c2ccccc2)C(=O)C2(OC(=O)c3ccccc3)C3C=CC(C3)C12)c1ccccc1 (stereo partly drawn)	inactive		
Cc1nc2ccccc2nc1CC(=N)c1ccccc1		> 200 µM	61.7 µM
CCCC(=O)NC(Nc1ccc(S(=O)(=O)Nc2cc(C)on2)cc1)(C(=O)OCC)C(F)(F)F (stereo not drawn)	inactive		
NCC(=O)NC1(C(=O)O)CCCC1 (HELM PEPTIDE1{G.[O=C(O)C1(N[*:1])CCCC1]}$$$$V2.0)		> 200 µM	> 200 µM
Oc1c(-c2ccccc2)nc2cnccn12		> 447 µM	> 447 µM
CCCCCCCCCCCCOC(=S)NC	inactive		
NC(CS)C(=O)NCCNCCNc1ccc(NCCNCCNC(=O)C(N)CS)c2c1C(=O)c1c(O)ccc(O)c1C2=O (stereo not drawn)		> 200 µM	13.5 µM
COc1cc2c[n+]3ccc4cc(OC)c(OC)cc4c3cc2cc1O	inactive		
O=C1NC(=O)c2ccc3c4c(ccc1c24)C(=O)NC3=O		> 200 µM	> 200 µM
CCOC(=O)c1cc(-c2ccccn2)c(=O)n2ccccc12		> 200 µM	49 µM
CC(=O)SC1CC(=O)OC1=O (stereo not drawn)		> 200 µM	> 200 µM
COC(=O)c1ccc(OCc2ccc3nc(OC)c(OC)nc3c2)cc1		> 4.07 µM	> 4.07 µM
Nc1ccn(C2CCC(CO)O2)c(=O)n1 (stereo not drawn)		4.68 µM	13.5 µM
CCC(=O)C(C)C(=O)C(=O)NCCNC(=O)C(=O)C(C)C(=O)CC (stereo not drawn)	inactive		
CCN(CC)C(=O)C1C[C@@H](O)CN1C(=O)c1ccc(OC)c(OC)c1 (stereo partly drawn)		> 200 µM	> 200 µM
COc1ccc2[nH]c(C(=O)N3CC(CCl)c4c3cc(N)c3ccccc43)cc2c1 (stereo not drawn)		> 0.2 µM	0.00158 µM
CC1(C)OC(=O)N(c2ccccc2)C12C=Cc1cc([N+](=O)[O-])cc([N+](=O)[O-])c1O2 (stereo not drawn)		> 200 µM	117 µM
CC(C)c1cc(C(C)C)c(B(c2ccccc2)c2ccccc2)c(C(C)C)c1B(c1ccccc1)c1ccccc1		> 100 µM	> 100 µM
CC1CC[C@@H](C(C)C)[C@H](Oc2nnc(C3OC(CO)C(O)C3O)o2)C1 (stereo partly drawn)		> 200 µM	> 200 µM
O=c1oc2ccccc2c(O)c1Cc1c(O)c2ccccc2oc1=O		> 200 µM	55 µM and > 200 µM

Compound	outcome	EC50	IC50
N#CC1C(=O)C(=O)N(c2ccccc2)C1=O (stereo not drawn)		> 33.9 µM	> 33.9 µM
CN(C)C1C(CO)OC(n2cnc3c(N)ncnc32)C1O (stereo not drawn)		> 200 µM	> 200 µM
COCN1C(=O)[C@@H]2CCCN2C(=O)c2cc(OC)c(Cc3ccccc3)cc21		> 200 µM	> 200 µM
CN(C)CCOc1cccc2c1C(=O)c1ccccc1C2=O	inactive		
CC1C(c2cc(C(C)(C)C)c(O)c(C(C)(C)C)c2)c2cc3c(cc2OC1N1CCOCC1)OCO3 (stereo not drawn)		> 200 µM	> 200 µM
CC(CN(C)C)/C(=N\Nc1ccccc1)c1ccccc1 (stereo not drawn)	inactive		
Cc1c2cc[nH]c(=O)c2cc2c(=O)c3cnccc3[nH]c12		> 1.95 µM	> 1.95 µM
C/C(CC(=O)Nc1ccc(Cl)cc1)=N\NC(=O)C[n+]1ccccc1		> 49 µM	> 49 µM
N#C/C(=C\c1cc(Cl)ccc1O)C1CCC([N+](=O)[O-])CC1 (stereo not drawn)		> 200 µM	30.2 µM
CC(=O)Nc1cccc(N2C(=O)/C(=C\c3cccc(Oc4ccccc4)c3)S(=O)(=O)C2c2ccccc2)c1 (stereo not drawn)		> 200 µM	34.7 µM
Nc1cccnc1NCC1(CO)CCCC1		> 200 µM	> 200 µM
COc1c(C2=NC(C(C)C)CO2)ccc2ccccc12 (stereo not drawn)		> 186 µM	20.9 µM
OC12C=CC(CCCC1)O2 (stereo not drawn)		> 200 µM	12.3 µM
Cc1ccc(-c2cc(=O)c3cc(C)c(C)c(C(=O)O)c3o2)cc1	inactive		
CC1=CCC(Br)C(C)(C)C12CCC(C)(Cl)C(Br)C2 (stereo not drawn)		> 200 µM	29.5 µM
C/C(CC(=O)CCC(=O)Nc1cccc(C(F)(F)F)c1)=N\NC(=O)NN		> 10 µM	> 10 µM
COc1ccc(C2(c3ccc(OC)cc3)N=NC3(C)CC32)cc1 (stereo not drawn)		> 91.2 µM	89.1 µM
FC(F)(F)c1cccc(C2SCc3nc4ccccc4n32)c1 (stereo not drawn)	inactive		
CC1(C)CCc2cc3c(cc2O1)OCC1c2cc(O)c(OCc4ccccc4)cc2OC31 (stereo not drawn)		> 200 µM	23.4 µM
O=C1C=CC(=O)c2c(O)cccc21	inactive		
Cc1ccc(N2C(=O)/C(=C3\Sc4c(nc(C)[nH]c4=O)N3c3ccccc3)SC2=S)cc1		> 4.07 µM	> 4.07 µM
CC(=O)OC12c3ccccc3C(c3ccccc31)C1C(=O)N(c3ccccc3O)C(=O)C12 (stereo not drawn)		100 µM	105 µM
COc1c(O)c2c3c(cc(C)cc3c1C(C)C)OC2		> 28.2 µM	> 28.2 µM

Compound	outcome	EC50	IC50
COc1ccc(CN2CCCN(Cc3ccc(OC)cc3)S2)cc1		> 75.9 µM	31.6 µM
C[CH2][Sn]([CH2]C)([O]C(=O)c1cccc(OC)c1)[O][Sn]([CH2]C)([CH2]C)[O]C(=O)c1cccc(OC)c1		> 38.9 µM	16.6 µM
O=[N+]([O-])C(=C(Nc1ccccc1)Nc1ccccc1)/C(Cl)=C(\Cl)Br		> 200 µM	7.41 µM
Cc1ccc(-c2c(C#N)c(-c3ccccc3)c(C#N)c(=O)n2NS(=O)(=O)c2ccc(C)cc2)cc1		> 200 µM	57.5 µM
COC1=NC2=NC(OC)=NC3=C(Br)C=C(Br)C(=N1)N23		> 9.77 µM	> 9.77 µM
CC(C)(C)c1cc(C=C(C#N)C#N)cc(C(C)(C)C)c1O		> 20 µM	0.372 µM
OCC1OCOC2COCOC12 (stereo not drawn)		> 200 µM	> 200 µM
NC1=NS(=O)(=O)Nc2nonc21		> 1320 µM	> 1320 µM
[N-]=[N+]=C1C(=O)C2CC3CC1CC2C3 (stereo not drawn)		> 204 µM	> 204 µM
COc1ccc(NC(=S)N/N=C\c2ccc(NC(C)=O)cc2)cc1	inactive		
CN1CN(c2ccccc2)C2(CCNCC2)C1=O		> 200 µM	> 200 µM
Cc1ccc(C2(C)NC(=S)N(NC(N)=S)C2=S)cc1 (stereo not drawn)		> 32.4 µM	> 32.4 µM
CC/C=C/c1cc2cc[nH]c2c2c1C(C)C[C@@H]2C (stereo partly drawn)	inactive		
CC12CCC(c3sc(N)c(C#N)c31)C2(C)C (stereo not drawn)		> 191 µM	35.5 µM
Clc1cc2nc[nH]c2cc1Cl		> 269 µM	141 µM
Nc1nc(N)c(N=O)c(N)n1		> 200 µM	170 µM
COc1cc2c(cc1OC)C1CCc3ccccc3CN1CC2 (stereo not drawn)		> 200 µM	170 µM
c1ccc2c(c1)SCCCS2		> 39.8 µM	> 39.8 µM
CC1(C)Oc2ccc3ccc(=O)oc3c2[C@@H](OC(=O)C23CCC(C)(C(=O)O2)C3(C)C)[C@H]1OC(=O)C12CCC(C)(C(=O)O1)C2(C)C (stereo partly drawn)		2.95 µM	14.1 µM
COc1cc2c(cc1OC)-c1cc3ccccc3c(=O)n1CC2		> 200 µM	28.2 µM
COC(=O)c1c(C)cccc1C1CN=NC12Cc1cc(C)cc(C)c1C2=O (stereo not drawn)		> 200 µM	33.1 µM
C=C1C2CCC3(C4C[C@@H]5C6(C)CCCC5([C@H](O4)N4CCO[C@H]46)[C@@H]3C2)C1OC(C)=O (stereo partly drawn)		> 18.2 µM	> 18.2 µM
